From patent US7101878B1 (Agouron Pharmaceuticals, Inc., priority 1998, dated 2006)
Read-outs that look alike come from different tables or passages of the source.

Key:
[1] = target: T1, human GnRH receptor (Homo sapiens, UniProt P30968); test: Radioligand binding, 125I-GnRH-A displacement, membranes of HEK 293 cells with human GnRH receptor
T1 construct: expressed in transfected cells; host or cells: HEK 293 (hGnRH-R/293, from Dr. Stuart Sealfon)
T1 sequence (P30968 1-328): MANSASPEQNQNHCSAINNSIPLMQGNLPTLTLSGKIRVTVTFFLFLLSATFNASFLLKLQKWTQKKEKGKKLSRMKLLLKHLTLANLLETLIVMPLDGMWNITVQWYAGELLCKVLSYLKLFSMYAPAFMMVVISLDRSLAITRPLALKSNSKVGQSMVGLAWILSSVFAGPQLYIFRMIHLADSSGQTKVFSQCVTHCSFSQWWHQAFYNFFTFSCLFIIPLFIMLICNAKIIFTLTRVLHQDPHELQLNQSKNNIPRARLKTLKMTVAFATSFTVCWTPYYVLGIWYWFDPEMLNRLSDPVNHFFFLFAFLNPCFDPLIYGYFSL
In short: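 After filtration and PBS washes, bound radioactivity was counted by scintillation and IC50 derived. Identical conditions applied for non-human receptors.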

[2] = target: T2, mouse GnRH receptor (Mus musculus, UniProt Q01776); test: Radioligand binding, 125I-GnRH-A, 293 cells expressing mouse GnRH receptors
T2 construct: expressed in transfected cells; host or cells: 293 cells
T2 sequence (Q01776 1-327): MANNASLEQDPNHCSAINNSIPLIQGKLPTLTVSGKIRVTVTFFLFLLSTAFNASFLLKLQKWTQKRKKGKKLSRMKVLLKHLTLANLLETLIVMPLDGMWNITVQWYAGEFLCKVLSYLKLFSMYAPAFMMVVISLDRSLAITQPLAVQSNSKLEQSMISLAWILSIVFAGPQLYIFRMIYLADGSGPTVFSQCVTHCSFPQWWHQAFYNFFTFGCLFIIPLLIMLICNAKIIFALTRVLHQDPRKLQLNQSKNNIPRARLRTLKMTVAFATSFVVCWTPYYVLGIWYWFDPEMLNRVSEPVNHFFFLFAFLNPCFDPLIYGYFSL
In short: (§1)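 Bound label captured on 0.1% polyethyleneimine-treated GF/C filters, washed three times with PBS, counted. IC50 derived; identical set-up for every species.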

[3] = Pharmacokinetic studies / bioavailability in rats; assay type: in vivo, rat; conditions: for bioavailability: ip, i.p. 20 mg/kg, read-out: Bioavailability after i.p. dosing; for Cmax / Tmax: po
[4] = Metabolism rate, pmol/min/mg at 1 μM, human; assay type: in vitro ADME; conditions: 1 μM compound
[5] = target: T3, rat GnRH receptor (Rattus norvegicus, UniProt P30969); test: Radioligand binding, 125I-GnRH-A, rat pituitary membranes; parameters: membranes were prepared from rat pituitary; from tissue; host or cells: rat pituitary
T3 sequence (P30969 1-327): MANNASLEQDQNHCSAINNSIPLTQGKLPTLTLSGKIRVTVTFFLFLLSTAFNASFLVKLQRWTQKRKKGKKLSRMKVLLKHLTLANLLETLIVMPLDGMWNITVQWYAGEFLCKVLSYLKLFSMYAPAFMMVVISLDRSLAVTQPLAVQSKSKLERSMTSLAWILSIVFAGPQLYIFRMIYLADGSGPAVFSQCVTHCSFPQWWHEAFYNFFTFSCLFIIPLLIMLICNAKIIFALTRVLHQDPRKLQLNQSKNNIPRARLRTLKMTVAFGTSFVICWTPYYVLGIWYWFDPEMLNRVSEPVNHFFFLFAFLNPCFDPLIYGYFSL
In short: as §1

[6] = target: 5-HT7 (Homo sapiens, UniProt P34969); test: Selectivity: 5-HT7
Chain of 5-HT7 (P34969 whole entry, species assumed): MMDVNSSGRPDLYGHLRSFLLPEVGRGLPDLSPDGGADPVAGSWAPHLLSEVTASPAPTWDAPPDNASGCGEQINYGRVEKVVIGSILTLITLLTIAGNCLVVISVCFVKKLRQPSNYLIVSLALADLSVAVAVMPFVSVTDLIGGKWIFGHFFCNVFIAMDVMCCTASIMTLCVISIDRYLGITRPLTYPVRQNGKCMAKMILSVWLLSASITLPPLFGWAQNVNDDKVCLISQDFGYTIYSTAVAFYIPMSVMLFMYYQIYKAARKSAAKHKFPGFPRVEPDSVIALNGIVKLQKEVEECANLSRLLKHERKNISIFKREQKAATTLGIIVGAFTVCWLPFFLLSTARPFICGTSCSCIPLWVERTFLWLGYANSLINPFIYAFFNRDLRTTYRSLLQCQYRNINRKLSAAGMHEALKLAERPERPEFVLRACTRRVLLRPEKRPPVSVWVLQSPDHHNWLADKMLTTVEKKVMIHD

[7] = target: T4, NPY Y1 (Homo sapiens, UniProt P25929); test: Selectivity: NPY Y1
T4 sequence (P25929 1-384): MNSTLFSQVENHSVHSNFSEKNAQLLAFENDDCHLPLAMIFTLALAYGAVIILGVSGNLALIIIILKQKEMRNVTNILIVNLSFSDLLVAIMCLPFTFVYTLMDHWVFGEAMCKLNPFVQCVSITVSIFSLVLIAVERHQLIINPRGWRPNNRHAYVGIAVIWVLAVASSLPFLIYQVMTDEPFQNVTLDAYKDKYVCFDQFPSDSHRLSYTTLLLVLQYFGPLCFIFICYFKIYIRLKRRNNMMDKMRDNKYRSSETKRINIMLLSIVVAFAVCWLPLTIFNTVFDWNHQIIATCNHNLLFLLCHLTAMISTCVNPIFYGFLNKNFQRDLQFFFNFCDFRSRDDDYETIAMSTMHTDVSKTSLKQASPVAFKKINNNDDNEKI

[8] = target: D2 Dopamine (Homo sapiens, UniProt P14416); test: Selectivity: D2 Dopamine
Chain of D2 Dopamine (P14416 whole entry): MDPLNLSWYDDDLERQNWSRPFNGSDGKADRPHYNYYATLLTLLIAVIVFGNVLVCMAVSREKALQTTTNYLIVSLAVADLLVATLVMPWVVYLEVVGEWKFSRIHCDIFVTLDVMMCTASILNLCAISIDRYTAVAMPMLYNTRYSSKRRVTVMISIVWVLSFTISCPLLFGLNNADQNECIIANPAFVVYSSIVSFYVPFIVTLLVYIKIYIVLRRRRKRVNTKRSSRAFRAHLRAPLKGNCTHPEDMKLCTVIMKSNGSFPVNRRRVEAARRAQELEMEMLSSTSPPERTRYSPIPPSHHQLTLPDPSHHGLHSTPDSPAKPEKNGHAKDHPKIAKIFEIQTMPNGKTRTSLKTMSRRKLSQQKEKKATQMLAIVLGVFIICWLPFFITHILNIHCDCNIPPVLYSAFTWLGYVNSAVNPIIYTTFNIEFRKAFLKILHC

[9] = male, rat, plasma, iv, 10 mg/kg, rat male
[10] = rat male, p.o. 20 mg/kg, vehicle per footnote (DMSO/cremophor/saline)
[11] = male, rat, plasma, 10 mg/kg, rat male, p.o. 10 mg/kg, vehicle per footnote
[12] = male, rat, plasma, 20 mg/kg, rat male, p.o. 20 mg/kg, vehicle per footnote (DMSO/cremophor/saline)
[13] = female, rat, plasma, 10 mg/kg, rat female, p.o. 10 mg/kg, 5 mg/ml solution in 10% DMSO 10% cremophor 80% saline
[14] = female, rat, plasma, rat female
[15] = rat female, 5 mg/ml solution in 10% DMSO 10% cremophor 80% saline
[16] = female, rat, plasma, 20 mg/kg, rat female, p.o. 20 mg/kg, 10 mg/ml solution in 10% DMSO 10% cremophor 80% saline
[17] = male, rat, plasma, 20 mg/kg, castrated male rats, p.o. 20 mg/kg, 10 mg/ml solution in 10% DMSO 10% cremophor 80% saline

IC50 ([1]; read-out: hGnRH IC50) [nM]	IC50 ([2]; read-out: mGnRH IC50) [nM]	half-life [3, 9] [h]	Human pmol/min/mg 1 μM [4] [pmol/min/mg]	IC50 ([5]; read-out: rGnRH IC50) [nM]	Cmax [3, 11] [nM]	Tmax [3, 11] [h]	Cmax [3, 13] [nM]	Tmax [3, 13] [h]	half-life [3, 14] [h]	Fp.o. [3, 15]	Structure (SMILES)	bioavailability ([3]; plasma, rat) [%]	Fp.o. [3, 10]	Ki [6] [nM]	Ki [8] [nM]	Cmax [3, 12] [nM]	Tmax [3, 12] [h]	also measured
6.8	2.7	4.1	238	2.5	350	1	510	1	3.6	37% (10 mg/kg)^10	COc1cc(OC)c(NC(=O)c2ccc(Cc3cc4c(cc3C)CCCC4(C)C)o2)c(OC)c1 [Compound 183]							Fp.o. ([3]; rat male, vehicle per footnote): 29% (10 mg/kg)^10
42	13		346	2.8			960	1.5	2	33% (10 mg/kg)^10	COc1cc(OC)c(NC(=O)c2ccc(Cc3cc(C(C)(C)C)ccc3C)o2)c(OC)c1 [Compound 200]							

The next lines start with the compound.

Structure (SMILES)	IC50 ([1]; read-out: hGnRH IC50) [nM]	IC50 ([2]; read-out: mGnRH IC50) [nM]	half-life [3, 9] [h]	Human pmol/min/mg 1 μM [4] [pmol/min/mg]	IC50 ([5]; read-out: rGnRH IC50) [nM]	Cmax [3, 11] [nM]	Tmax [3, 11] [h]	Cmax [3, 13] [nM]	Tmax [3, 13] [h]	half-life [3, 14] [h]	Fp.o. [3, 15]	bioavailability ([3]; plasma, rat) [%]	Fp.o. [3, 10]	Ki [6] [nM]	Ki [8] [nM]	Cmax [3, 12] [nM]	Tmax [3, 12] [h]	also measured
COc1cc(OC)c(NC(=O)c2ccc(Cc3cc4c(cc3C)C(C)(C)CCC4(C)C)o2)c(OC)c1C#N [Compound 177]	7.4	7.3	2.2	876	5.7							8	0 (20 mg/kg)^9%					
Cc1cc2c(cc1Cc1ccc(C(=O)NCC3CCCC(CNc4nccc(NCC5CCCO5)n4)C3)o1)C(C)(C)CCC2(C)C (centres unmarked) [Compound 11]	190	50	3		9	150	1.5 to 3.5							1800	150			IC50 ([1]; means ± SE of at least three experiments performed in duplicate, read-out: Human IC50): 190 ± 40 nM; IC50 ([1]; second value marked * (mostly in parentheses), asterisk not explained, read-out: hGnRH IC50, value marked *): 80 nM; IC50 ([2]; means ± SE of at least three experiments performed in duplicate, read-out: Mouse IC50): 50 ± 10 nM; concentration at 4 h ([3]; rat, plasma, iv, four hours after i.v. injection, 10 mg/kg): 100 to 200 nM; IC50 [7]: 2550 nM; IC50 ([5]; means ± SE of at least three experiments performed in duplicate, read-out: Rat IC50): 9 ± 0.3 nM
COc1cc(OC)c(NC(=O)c2ccc(Cc3cc4c(cc3OC)C(C)(C)CCC4(C)C)o2)c(OC)c1 [Compound 169]	12	5	1.5	589	7							70	27% (20 mg/kg)^1		3400	970	1	
COc1cc(OC)c(NC(=O)c2ccc(Cc3cc4c(cc3C)C(C)(C)CCC4(C)C)o2)c(OC)c1 [Compound 134]	6	3	1.4	630	3					1.7		38	8% (20 mg/kg)^5	> 4400	2400	610	1	Fp.o. ([3]; castrated male rats, p.o. 20 mg/kg, 10 mg/ml solution in 10% DMSO 10% cremophor 80% saline): 23% (20 mg/kg)^1; Cmax [3, 16]: 2310 nM; Tmax [3, 16]: 1 h; half-life ([3]; male, rat, plasma, castrated male rats): 1.7 h; Cmax [3, 17]: 1980 nM; Tmax [3, 17]: 1.5 h; Cmax ([3]; male, rat, plasma, 20 mg/kg, rat male, p.o. 20 mg/kg, 40 mg/ml in PEG400): 230 nM; Fp.o. ([3]; rat female, p.o. 20 mg/kg, 10 mg/ml solution in 10% DMSO 10% cremophor 80% saline): 24% (20 mg/kg)^1
